Source: EP0083683A1, “Method of preparing 1,4-bis(substituted-amino)-5,8-dihydroxyanthraquinones and pharmaceutical compositions containing them” (AMERICAN CYANAMID COMPANY, priority 1981, dated 1983)

Tests used:
[1] = test system: lymphocytic leukemia P388; assay: Lymphocytic leukemia P388 test; assay type: in vivo, DBA/2 mice
Procedure: The animals used are DBA/2 mice all of one sex, weighing a minimum of 17 g. and all within a 3 g. weight range. There are 5 or 6 animals per test group. The tumor transplant is by intraperitoneal injection of 0.5 ml. of dilute ascitic fluid containing 10^6 cells of lymphocytic leukemia P388. The test compounds are administered intraperitoneally on days one, 5 and 9 (relative to tumor inoculation) at various doses. […] The median survival time and the ratio of survival time for treated (T)/control (C) animals are calculated. The positive control compound is 5-fluorouracil given as a 60 mg./kg. injection. The results of this test with representative compounds of the present invention appear in Table I. The criterion for efficacy is T/C x 100>125%.

[2] = test system: melanotic melanoma B16; assay: Melanotic Melanoma B16 test; assay type: in vivo, BDF1 mice
Procedure: The animals used are BDF1 mice, all of the same sex, weighing a minimum of 17 g. and all within a 3 g. weight range. There are normally 10 animals per test group. A one-gram portion of melanotic melanoma B16 tumor is homogenized in 10 ml. of cold balanced salt solution and a 0.5 ml. aliquot of the homogenate is implanted intraperitoneally into each of the test mice. The test compounds are administered intraperitoneally on days one through 9 (relative to tumor inoculation) at various doses. The animals are weighed and survivors are recorded on a regular basis for 60 days. The median survival time and the ratio of survival time for treated (T)/control (C) animals are calculated. The positive control compound is 5-fluorouracil given as a 20 mg./kg. injection. The criterion for efficacy is T/C x 100 >125%.

[3] = 1st test, positive control, dose 60 mg./kg.
[4] = 2nd test, positive control, dose 60 mg./kg.
[5] = positive control, dose 20.0 mg./kg.
[6] = 1st test, dose 0.78 mg./kg. intraperitoneally on days 1, 5 and 9
[7] = 1st test, dose 1.56 mg./kg. intraperitoneally on days 1, 5 and 9
[8] = 1st test, dose 3.12 mg./kg. intraperitoneally on days 1, 5 and 9
[9] = 1st test, dose 6.25 mg./kg. intraperitoneally on days 1, 5 and 9
[10] = 2nd test, dose 0.10 mg./kg. intraperitoneally on days 1, 5 and 9
[11] = 2nd test, dose 0.19 mg./kg. intraperitoneally on days 1, 5 and 9
[12] = 2nd test, dose 0.39 mg./kg. intraperitoneally on days 1, 5 and 9
[13] = 2nd test, dose 0.78 mg./kg. intraperitoneally on days 1, 5 and 9
[14] = 2nd test, dose 1.56 mg./kg. intraperitoneally on days 1, 5 and 9
[15] = 2nd test, dose 3.12 mg./kg. intraperitoneally on days 1, 5 and 9
[16] = 2nd test, dose 6.25 mg./kg. intraperitoneally on days 1, 5 and 9
[17] = dose 0.09 mg./kg. intraperitoneally on days one through 9
[18] = dose 0.19 mg./kg. intraperitoneally on days one through 9
[19] = dose 0.37 mg./kg. intraperitoneally on days one through 9
[20] = dose 0.75 mg./kg. intraperitoneally on days one through 9
[21] = dose 1.5 mg./kg. intraperitoneally on days one through 9

O=c1[nH]cc(F)c(=O)[nH]1 [5-Fluorouracil, 5-fluorouracil, reference compound]
Median Survival Time [1, 3]: 21.0 days | T/C x 100 (Percent) [1, 3]: 191% | Median Survival Time [1, 4]: 21.5 days | T/C x 100 (Percent) [1, 4]: 195% | Median Survival Time [2, 5]: 26.0 days | T/C x 100 (Percent) [2, 5]: 137%

O=C1c2c(O)ccc(O)c2C(=O)c2c(NCCN3CCOC3)ccc(NCCN3CCOC3)c21 [l,4-Dihydroxy-5,8-bis[[2-(3-oxazolidinyl)ethyl]amino]-anthraquinone]
Median Survival Time [1, 6]: 23.0 days | T/C x 100 (Percent) [1, 6]: 209% | Median Survival Time [1, 7]: 23.5 days | T/C x 100 (Percent) [1, 7]: 214% | "Cures" = number of survivors/total at 60 days [1, 8]: 1/6 | Median Survival Time [1, 8]: 29.5 days | T/C x 100 (Percent) [1, 8]: 268% | "Cures" = number of survivors/total at 60 days [1, 9]: 2/6 | Median Survival Time [1, 9]: >30.0 days | T/C x 100 (Percent) [1, 9]: >273% | Median Survival Time [1, 10]: 19.5 days | T/C x 100 (Percent) [1, 10]: 177% | Median Survival Time [1, 11]: 23.5 days | T/C x 100 (Percent) [1, 11]: 214% | Median Survival Time [1, 12]: 23.5 days | T/C x 100 (Percent) [1, 12]: 214% | Median Survival Time [1, 13]: 22.0 days | T/C x 100 (Percent) [1, 13]: 200% | "Cures" = number of survivors/total at 60 days [1, 14]: 1/6 | Median Survival Time [1, 14]: 30.0 days | T/C x 100 (Percent) [1, 14]: 273% | Median Survival Time [1, 15]: >30.0 days | T/C x 100 (Percent) [1, 15]: >273% | Median Survival Time [1, 16]: 14.0 days | T/C x 100 (Percent) [1, 16]: 127% | Median Survival Time [2, 17]: 29.0 days | T/C x 100 (Percent) [2, 17]: 153% | Median Survival Time [2, 18]: 31.0 days | T/C x 100 (Percent) [2, 18]: 163% | Median Survival Time [2, 19]: 49.5 days | T/C x 100 (Percent) [2, 19]: 260% | Median Survival Time [2, 20]: 46.0 days | T/C x 100 (Percent) [2, 20]: 242% | Median Survival Time [2, 21]: 55.5 days | T/C x 100 (Percent) [2, 21]: 292%
